A word on the IC50: it is the concentration needed to halve the response being measured.

Structures are written as SMILES.

We go through 1 compound from patent US8026231B2, “Aminothiolester compounds, pharmaceutical and cosmetic compositions containing same and uses thereof” (CNRS, priority 2000, dated 2011).

One test relates to B16 cells. Nature of the test: Growth of B16 cells (protein and DNA assay). It is filed as cell-based, mouse. Particulars: 50% inhibition of growth. The method, then:
(§1) The cells used correspond to various cell lines: human lung normal embryonic fibroblasts (MRC5), mouse melanoma cells (B16), mouse lymphocytic leukaemia cells (L1210) and L1210T cells obtained by infecting L1210 cells with a retroviral vector bearing human ALDH1 cDNA.
(§2) The procedure used for the tests on the B16 and MRC5 cells is as follows: • The test compounds are added 4 hours after placing the cells in the wells. After 72 hours, the cells are removed at different times. The B16 and MRC5 cells are washed twice with PBS and recovered directly with 0.1M sodium chloride.
(§3) The effect on the growth of the B16 and MRC5 cells is measured by protein assay according to the Lowry method (Lowry, O. H., Rosenbrough, N. J., Farr, A. L. and Randall, J. Biol. Chem. 193, 265-275, (1951)) and DNA assay by the Hoechst method (West, D. C., Sattar, A. and Kumar, S., Anal. Biochem. 147, 289-295, (1985)).
(§4) The IC50 concentration is the concentration corresponding to a 50% inhibition of growth of the cells.

For the next test, the system named is MRC5 cells. Nature of the test: Growth of MRC5 cells (protein and DNA assay). The format is cell-based, human. Particulars: 50% inhibition of growth. As for the experimental part: as §1, §2, §3, §4
A further test has as its system BAF3 bcl2 cells. Description: Growth of BAF3 bcl2 cells (viable cell count, Trypan blue). The format is cell-based, murine. Conditions: 50% inhibition of cell growth. As for the experimental part: The cells used correspond to two cell lines: metastatic cells of human prostate cancer (DU145) and murine lymphoid cells transfected with the human bcl2 gene (BAF3 bcl2).
The procedure used for the tests on BAF3 bcl2 cells is as follows: • 10^5 cells are incubated in the various wells of a microplate in 1 ml of culture medium. After incubation for 4 hours, the test compounds are added to the wells containing the BAF3 bcl2 cells.
For the BAF3 bcl2 cells, the growth is measured by counting the viable cells in the presence of 0.1% Trypan blue. The control consists of thioampal, disclosed in patent application WO 98/44919.
The IC50 concentration is the concentration corresponding to a 50% inhibition of cell growth.

Another test concerns K562 cells. Nature of the test: Growth of K562 cells (control, no MDR overexpression). Particulars: increasing concentrations, 72 h, FIGS. 7 and 8. The format is cell-based, human. As for the experimental part:
10^5 cells were incubated in the various wells of a microplate in 1 ml of culture medium. These are R7 cells, on the one hand, and K562 cells, on the other hand.
After incubating for 4 hours, the test compound (compound of Example 1 according to the invention, on the one hand, and daunorubicin, on the other hand) was added to the wells containing the cells.
After 72 hours, the cells were collected at different times.
The growth of the cells was measured by counting the viable cells in the presence of 0.1% Trypan blue.
FIGS. 7 and 8 respectively represent the percentage inhibition (I %) by daunorubicin and the compound of Example 1 on the growth of the R7 and K562 cells, obtained at increasing concentrations C. The results obtained with the K562 cells are symbolized by ♦ and those obtained with the R7 cells are symbolized by ▴.

Another test relates to DU145 cells. Nature of the test: Combination of two compounds of the invention on the growth of DU145 cells. Particulars: 2 μM. It is filed as cell-based, human. The method, then: (§5) 10^5 normal human prostate cells or 10^5 cancerous human prostate cells (DU145) are incubated in various wells of a microplate in 1 ml of culture medium.
(§6) The compounds are added 4 hours after placing the cells in the wells.
(§7) After 72 hours, the cells are removed at different times. The DU145 cells or the normal cells are washed twice with PBS and recovered directly with 0.1M sodium chloride.
(§8) The effect on the growth of the DU145 cells or the normal cells is measured by protein assay according to the Lowry method (Lowry, O. H., Rosenbrough, N. J., Farr, A. L. and Randall, J. Biol. Chem. 193, 265-275, (1951)) and DNA assay by the Hoechst method (West, D. C., Sattar, A. and Kumar, S., Anal. Biochem. 147, 289-295, (1985)).

Test [1] has as its system normal human prostate cells. Nature of the test: Combination of two compounds of the invention on normal human prostate cells. The format is cell-based. Particulars: 2 μM. As for the experimental part:
as §5, §6, §7, §8

Regarding `CSC(=O)C#CC(C)(C)N(C)C` [Example 1, S-methyl 4-dimethyl-amino-4-methyl-2-pentynethioate], the IC50 was 0.8 µM in the test on B16 cells, 8.4 µM in the test with MRC5 cells and 0.25 µM in the test with BAF3 bcl2 cells. For the same compound, the “Inhibition of the growth of the K562 cells” value with K562 cells is on record as “inhibitory effect obtained at the same concentrations on the growth of the K562 cells”. Also, the “% Inhibition of DU145 cells” value in the test on DU145 cells came to 21.3%. Further, the “% Inhibition of normal human prostate cells” value in test [1] is 3.7%.
